{
  "source": "patent US20080070987A1",
  "about": "“META-XYLYLENEDIAMINE VANADATE SALTS” (priority 2006, published 2008)",
  "key": {"[1]": {"test_system": "isolated mouse adipocytes", "assay": "Glucose (2-deoxyglucose) transport in isolated mouse adipocytes", "type": "cell-based, FVB mice", "details": "100 μM", "experimental": "Adipose cells from FVB mice were incubated for 45 minutes in basal conditions (Basal) or in the presence of 100 nM insulin (Ins), and different concentrations of hexaquis(benzylammonium) decavanadate (B6V10) in the absence or in the presence of 1 mM semicarbazide (SCZ) and thereafter, 2-DG transport was measured over 5 min."}, "[2]": {"test_system": "streptozotocin-induced diabetic rats", "assay": "Chronic oral treatment of streptozotocin-induced diabetic rats, glycemia", "type": "in vivo, rat", "details": "for glycemia: oral, after the dosage increase to 10 μmol/kg/day; for effect on glycemia over the whole oral treatment, in words: streptozotocin (45 mg/kg) diabetic rats, daily oral administration for 17 days", "experimental": "FIG. 4 is a graphical illustration of the chronic and oral treatment with hexaquis(benzylammonium) decavanadate on glycemia of diabetic rats by estreptozotocine. In FIG. 4, [G] corresponds to the blood concentration of glucose (expressed in mg/dl) measured at different days of treatment (t/d). Diabetic rats were treated with a single daily oral dose of hexaquis(benzylammonium) decavanadate (5 μmol/kg/day between day 0 and day 7 marked with an arrow, and 10 μmol/kg/day from 7 days of treatment) (black squares) or with identical dose of sodium decavanadate (black diamonds). Glycemia in non-diabetic rats is also represented in the figure (black triangles).\nDiabetes was induced in rats by intravenous administration of streptozotocin, and subsequently, a hexaquis(benzylammonium) decavanadate or sodium decavanadate unique dose was administered to the rats. […] After seven days of treatment, the dose was increased at 10 μmol/kg/day which was maintained for an additional ten days. […] Thus, glycemia in sodium decavanadate treated rats was approximately 450 mg/dl and glycemia of hexaquis(benzylammonium) decavanadate treated rats was approximately 250 mg/dl.\n(§1) Male Wistar rats weighting 180-220 g were purchased from Harlan (Interfauna Ibérica S.A., Spain). Diabetes was induced by a single intraperitoneal injection of a freshly prepared solution of streptozotocin (in some studies the dose was 45 mg/kg body weight and in some others 100 mg/kg body weight dissolved in 50 mM citrate buffer, pH 4.5). Only diabetic animals with glycemia above 300 mg/dl were used. The animals were housed in animal quarters at 22° C. with a 12 h light/12 h dark cycle and were fed ad libitum. All procedures used were approved by the animal ethical committee of the University of Barcelona, Spain. Male mice C57 BL/Ks bearing the db/db mutation (Jackson Laboratories, Bar Harbor, Me.) were purchased from Harlan France (Gannat, France). C57BL/6J male mice were assigned for 16 weeks to very high-fat diet containing (in kcal): 72% from fat, 28% from proteins and <1% from carbohydrates (Burcelin et al., 2002, Am. J. Physiol. Endocrinol. Metab 282: E834-E842).\n(§2) Osmotic minipumps delivering B6V10 (2.5 μmol/kg body wt/day) or decavanadate (2.5 μmol/kg body wt/day) were implanted subcutaneously in diabetic rats anaesthetised by ketamine hydrochloride (95 mg/kg) and xylasine (10 mg/kg). […] Glycemia was measured on arterio-venous blood collected from the tail vessels at 09:00 am for two weeks, before the administration of vanadate. Insulin concentrations were determined before and after treatment. In another set of experiments, B6V10 was orally administered at a single dose of 5 μmol/kg/day during the first week and 10 μmol/kg/day during 2 additional weeks by gastric gavage. A control group received the corresponding decavanadate salt in the absence of benzylamine. At the end of the treatment, animals were sacrificed and the liver, fat pad, heart and lung were kept at −80° C. and the plasma at −20° C. until their use for in vitro analysis.\n(§3) In glucose tolerance tests and in chronic treatments, circulating glucose concentrations were determined by a rapid glucose analyser (Accutrend® Sensor Comfort, Roche, Basel. Switzerland). Plasma insulin (IRI) concentration was determined by ELISA method using a kit obtained from Crystal Chem. Inc. (Downers Grove, Ill.). Plasma triglycerides (Biosystems, Barcelona, Spain) and NEFAS (Wako Chemicals, Neuss, Germany) were determined with standard […] methods.\nChronic in vivo efficacy of B6V10 was evaluated in streptozotocin-induced diabetic rats and in db/db mice. Streptozotocin-induced (45 mg/kg) diabetic rats were subcutaneously treated with hexaquis(benzylammonium) decavanadate (2.5 μmol/kg) (B6V10, solid squares, FIG. 8A) or with decavanadate (2.5 μmol/kg) (V10, open circles, FIG. 8A) delivered subcutaneously by osmotic minipumps implanted in the dorsal region. Diabetic rats were also sham-operated (untreated, solid diamonds, FIG. 8A). […]"}, "[3]": {"test_system": "streptozotocin-induced diabetic rats", "type": "in vivo, rat", "details": "for effect on glycemia / circulating glucose, in words: 2.5 μmol/kg subcutaneous minipumps", "experimental": "as §1, §2, §3\nTo this end, rats were made diabetic by the injection of a large dose of streptozotocin (100 mg/kg) that eliminates β-pancreatic insulin content. […] These streptozotocin-induced diabetic rats were subcutaneously treated with B6V10 (2.5 μmol/kg) (solid squares, FIG. 9A) delivered by osmotic minipumps or left untreated (solid circles, FIG. 9A). Sham-operated nondiabetic rats were also untreated (solid triangles, FIG. 9A).\nThe concentration of circulating glucose under these conditions was also assayed. After 28 days of treating diabetic rats with hexaquis(benzylammonium) decavanadate (2.5 μmol/kg) (wide striped bars, FIG. 9B), or with decavanadate (close striped bars, FIG. 9B) delivered by osmotic minipumps, plasma insulin and glucose were measured. Untreated diabetic (solid bars, FIG. 9B) or nondiabetic rats (open bars, FIG. 9B) were similarly assayed as controls."}, "[4]": {"details": "streptozotocin 100 mg/kg, 2.5 μmol/kg minipumps, 28 days"}},
  "data": [
    {"substance": "hexaquis(benzylammonium) decavanadate [Example B6V10]", "values": [
      {"measurement": "stimulation of glucose transport (% increase)", "setting": "[1]", "value": 93, "unit": "%"},
      {"measurement": "time at which decrease of hyperglycemia was detected", "setting": "[2]; oral 5 μmol/kg/day", "value": "after but two days of treatment"},
      {"measurement": "effect on hyperglycemia, in words", "setting": "[2]; oral 5 μmol/kg/day for seven days", "value": "moderate decrease of hyperglycemia"},
      {"measurement": "effect of the dosage increase on glycemia, in words", "setting": "[2]; oral 10 μmol/kg/day for an additional ten days after seven days at 5 μmol/kg/day", "value": "additional decrease in glycemia"},
      {"measurement": "glycemia", "setting": "[2]", "value": "approximately 250 mg/dl"},
      {"measurement": "effect on glycemia over the whole oral treatment, in words", "setting": "[2]", "value": "significant correction of hyperglycemia"},
      {"measurement": "effect on body weight or organ weights", "setting": "[3]; rat, in vivo", "value": "did not affect body weight or organ weights"},
      {"measurement": "plasma glucose after 28 days of treatment", "setting": "[3]; [4]", "value": "plasma glucose was reduced"},
      {"measurement": "plasma insulin after 28 days of treatment", "setting": "[3]; [4]", "value": "without any observable change in the amount of insulin"},
      {"measurement": "effect on glycemia / circulating glucose, in words", "setting": "[3]; streptozotocin 100 mg/kg", "value": "reducing glycemia"}
    ]},
    {"substance": "sodium decavanadate [Example V10, reference compound]", "values": [
      {"measurement": "glycemia", "setting": "[2]", "value": "approximately 450 mg/dl"},
      {"measurement": "effect on glycemia over the whole oral treatment, in words", "setting": "[2]", "value": "did not alter glycemia"},
      {"measurement": "effect on glycemia over the whole oral treatment, in words", "setting": "[2]; listed as sodium decavanadate", "value": "not affected substantially"},
      {"measurement": "effect on glycemia / circulating glucose, in words", "setting": "[3]; streptozotocin 100 mg/kg", "value": "did not show any change in circulating glucose"}
    ]}
  ]
}
